Measured values published in US20260083865A1, “PROSTATE SPECIFIC MEMBRANE ANTIGEN (PSMA) LIGANDS AND USE THEREOF” (priority 2022, published 2026).
Where two headings read alike, the source gives them in different places. Numbered stars: 1 amine (or outer) side, 2 acyl side, 3 side chain; on linkers, the order of the positions; unused ones are H or OH. Bridge positions count the residues as written; N and C are the ends. Square brackets hold non-standard residues; d marks the D form. Peptide text beside a SMILES is read from it. * marks the point of attachment. X7 = O=C(O)CN1CCN(CC(=O)O)CCN(CC(=O)NC2CCN(CC(=O)*)CC2)CCN(CC(=O)O)CC1; DOTA = O=C(O)CN1CCN(CC(=O)O)CCN(CC(=O)*)CCN(CC(=O)O)CC1; Phe(4-CF3) = N[C@@H](Cc1ccc(C(F)(F)F)cc1)C(=O)O; Phe(4-Cl) = N[C@@H](Cc1ccc(Cl)cc1)C(=O)O; Arg(Me) = CNC(=N)NCCC[C@H](N)C(=O)O; X1 = O=C(CC1CCN([*:1])CC1)[*:2]; Cit = NC(=O)NCCC[C@H](N)C(=O)O; Lys(Me) = CNCCCC[C@H](N)C(=O)O; αMeD = C[C@](N)(CC(=O)O)C(=O)O; d(αMeS) = C[C@@](N)(CO)C(=O)O; Tle = CC(C)(C)[C@H](N)C(=O)O; Isovaleryl = CC(C)CC(=O)*; Nle = CCCC[C@H](N)C(=O)O; Aib = CC(C)(N)C(=O)O; CH2 = C([*:1])[*:2]; βAla = NCCC(=O)O

What was measured:
[1] = biological target: T1, PSMA-expressing C4-2 cells (Homo sapiens, UniProt Q04609); assay: FACS binding assay (competition with 50 nM PSM-0183); settings: read-out: pIC50 [C4-2] CAT (converted)
T1 construct: PSMA-expressing C4-2 cells (ATCC, Cat. No. CRL-3314) were cultured in RPMI-1640; host or cells: C4-2 cells
In short: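 C4-2 cells were incubated 1 h at 4 °C with 50 nM AF488-labelled peptide PSM-0183 plus increasing test compound concentrations, then washed twice in ice-cold buffer. Median fluorescence in the AF488 channel was read by flow cytometry. IC50/pIC50 was derived by 4PL fitting of MFI versus concentration.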

[2] = biological target: T2, Fc-fusion protein of human PSMA (hPSMA-Fc) (Homo sapiens, UniProt Q04609); assay: Surface plasmon resonance assay (Biacore T200, single cycle kinetic); format: binding; settings: hPSMA-Fc, 25° C., read-out: pKD CAT (converted)
T2 construct: purchased Acro Biosystems PSA-H5264
In short: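 hPSMA-Fc was captured (~1000 RU) on an Fc-binding-peptide CM5 chip, and compounds were run in single cycle kinetic mode at 25° C in HBST with 0.1% DMSO. Double-blank-corrected sensorgrams were fitted to a 1:1 Langmuir model to give KD, reported as pKD.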

[3] = FACS binding, PSMA-expressing C4-2 cells, pIC50 category
[4] = FACS binding, C4-2 cells, competition with 50 nM PSM-0183, category
[5] = SPR, single cycle kinetic, category
[6] = pIC50 category of FACS binding, C4-2 cells
[7] = pKD category for PSMA SPR activity assay

T1 sequence (Q04609 whole entry): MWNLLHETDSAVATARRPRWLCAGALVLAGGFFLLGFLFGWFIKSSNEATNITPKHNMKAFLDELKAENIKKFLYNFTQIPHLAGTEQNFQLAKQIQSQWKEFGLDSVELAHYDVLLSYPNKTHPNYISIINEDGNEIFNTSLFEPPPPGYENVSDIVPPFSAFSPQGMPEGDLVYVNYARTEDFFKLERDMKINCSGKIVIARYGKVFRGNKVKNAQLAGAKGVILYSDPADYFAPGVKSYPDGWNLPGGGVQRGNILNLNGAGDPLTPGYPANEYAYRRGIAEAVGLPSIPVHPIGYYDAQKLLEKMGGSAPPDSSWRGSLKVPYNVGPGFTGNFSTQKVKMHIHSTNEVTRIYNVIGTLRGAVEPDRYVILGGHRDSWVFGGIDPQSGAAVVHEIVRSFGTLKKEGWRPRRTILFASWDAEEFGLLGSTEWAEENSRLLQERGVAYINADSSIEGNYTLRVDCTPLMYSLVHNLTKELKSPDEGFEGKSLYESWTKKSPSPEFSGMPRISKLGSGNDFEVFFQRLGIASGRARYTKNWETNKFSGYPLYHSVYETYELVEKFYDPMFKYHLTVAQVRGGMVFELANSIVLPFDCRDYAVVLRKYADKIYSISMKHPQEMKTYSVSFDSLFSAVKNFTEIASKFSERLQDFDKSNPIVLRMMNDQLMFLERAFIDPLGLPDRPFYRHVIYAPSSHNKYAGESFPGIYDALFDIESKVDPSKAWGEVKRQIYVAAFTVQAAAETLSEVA
T2 sequence (Q04609 44-750 limits assumed): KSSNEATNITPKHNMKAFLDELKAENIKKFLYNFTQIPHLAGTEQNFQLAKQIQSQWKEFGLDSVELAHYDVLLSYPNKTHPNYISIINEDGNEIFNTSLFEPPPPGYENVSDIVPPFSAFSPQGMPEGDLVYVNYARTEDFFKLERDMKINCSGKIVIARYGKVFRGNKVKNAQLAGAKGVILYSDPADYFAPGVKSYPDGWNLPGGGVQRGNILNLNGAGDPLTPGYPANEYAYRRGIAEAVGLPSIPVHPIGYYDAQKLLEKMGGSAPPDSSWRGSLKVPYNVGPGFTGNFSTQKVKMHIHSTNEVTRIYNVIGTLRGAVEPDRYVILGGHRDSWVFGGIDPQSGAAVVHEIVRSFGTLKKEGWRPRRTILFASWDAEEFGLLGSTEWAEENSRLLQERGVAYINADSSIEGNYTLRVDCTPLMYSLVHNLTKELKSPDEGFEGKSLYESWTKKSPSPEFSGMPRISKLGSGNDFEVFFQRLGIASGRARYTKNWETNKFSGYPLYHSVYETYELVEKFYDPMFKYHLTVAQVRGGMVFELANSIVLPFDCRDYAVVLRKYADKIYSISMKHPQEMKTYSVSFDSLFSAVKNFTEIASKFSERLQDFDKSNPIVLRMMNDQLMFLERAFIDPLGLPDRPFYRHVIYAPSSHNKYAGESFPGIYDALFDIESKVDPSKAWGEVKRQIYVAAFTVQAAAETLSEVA

SMILES	IC50 [1, 3] [nM]	Kd ([2]; PSMA SPR assay, pKD category) [nM]	further results
CC(=O)NC(C)(C)C(=O)N[C@@H](Cc1ccc(Cl)cc1)C(=O)N[C@H]1CSSC[C@@H](C(=O)N[C@H](C(=O)N[C@H](C(N)=O)[C@@H](C)O)C(C)(C)C)NC(=O)[C@H](CC(N)=O)NC(=O)[C@H](CCCCNC(=O)CN2CCC(NC(=O)CN3CCN(CC(=O)O)CCN(CC(=O)O)CCN(CC(=O)O)CC3)CC2)NC(=O)[C@H](CCCNC(=N)N)NC(=O)[C@H](CCCCN)NC1=O [PSM-0282, Ac-Aib-Pcf-[Cys-Lys-Arg-Lys(DOTA-APAc)-Asn-Cys]-Tle-Thr-NH2] (Ac-[Aib][Phe(4-Cl)]CKRK(X7)NC[Tle]T-NH2; disulfide 3-8)	< 200	< 12.6	
C[C@@H](O)[C@H](NC(=O)CC1CCN(C(=O)CN2CCN(CC(=O)O)CCN(CC(=O)O)CCN(CC(=O)O)CC2)CC1)C(=O)NC(C)(C)C(=O)N[C@@H](Cc1ccc(Cl)cc1)C(=O)N[C@H]1CSCSC[C@@H](C(=O)N[C@H](C(N)=O)C(C)(C)C)NC(=O)[C@H](CC(N)=O)NC(=O)C(C)(C)NC(=O)[C@H](CCCNC(=N)N)NC(=O)[C@H](CCCCN)NC1=O [PSM-0332, DOTA-Cmp-Thr-Aib-Pcf-[Smc-Lys-Arg-Aib-Asn-Cys]-Tle-NH2] ({DOTA}-[X1]T[Aib][Phe(4-Cl)]CKR[Aib]NC[Tle]-NH2; linker 5-10 via CH2)	< 200	< 12.6	
CC(C)C[C@H](NC(=O)CC1CCN(C(=O)CN2CCN(CC(=O)O)CCN(CC(=O)O)CCN(CC(=O)O)CC2)CC1)C(=O)NC(C)(C)C(=O)N[C@@H](Cc1ccccc1)C(=O)N[C@H]1CSSC[C@@H](C(=O)N[C@H](C(=O)N[C@H](C(N)=O)[C@@H](C)O)C(C)(C)C)NC(=O)[C@H](CC(N)=O)NC(=O)C(C)(C)NC(=O)[C@H](CCCNC(=N)N)NC(=O)[C@H](CCCCN)NC1=O [PSM-0220, DOTA-Cmp-Leu-Aib-Phe-[Cys-Lys-Arg-Aib-Asn-Cys]-Tle-Thr-NH2] ({DOTA}-[X1]L[Aib]FCKR[Aib]NC[Tle]T-NH2; disulfide 5-10)			IC50 [1, 4]: < 200 nM; Kd [2, 5]: 12.6 to 126 nM
CNCCCC[C@@H]1NC(=O)[C@@H](NC(=O)[C@H](Cc2ccc(C(F)(F)F)cc2)NC(=O)C(C)(C)NC(=O)[C@@H](NC(=O)CC2CCN(C(=O)CN3CCN(CC(=O)O)CCN(CC(=O)O)CCN(CC(=O)O)CC3)CC2)[C@@H](C)O)CSSC[C@@H](C(=O)N[C@H](C(N)=O)C(C)(C)C)NC(=O)[C@H](CC(N)=O)NC(=O)C(C)(C)NC(=O)[C@H](CCCNC(=N)NC)NC1=O [PSM-0549, DOTA-Cmp-Thr-Aib-Ptf-[Cys-Lys(Me)-Arg(Me)-Aib-Ass-Cys]-Tle-NH2] ({DOTA}-[X1]T[Aib][Phe(4-CF3)]C[Lys(Me)][Arg(Me)][Aib]NC[Tle]-NH2; disulfide 5-10)			IC50 [1, 6]: < 200 nM; Kd [2, 7]: 12.6 to 126 nM
C[C@@H](O)[C@H](NC(=O)[C@@H](NC(=O)[C@@H]1CSSC[C@H](NC(=O)[C@H](Cc2ccc(Cl)cc2)NC(=O)C(C)(C)NC(=O)[C@@H](NC(=O)CC2CCN(C(=O)CN3CCN(CC(=O)O)CCN(CC(=O)O)CCN(CC(=O)O)CC3)CC2)[C@@H](C)O)C(=O)N[C@@H](CCCCN)C(=O)N[C@@H](CCCNC(=N)N)C(=O)N[C@](C)(CO)C(=O)N[C@@H](CC(N)=O)C(=O)N1)C(C)(C)C)C(N)=O [PSM-0314, DOTA-Cmp-Thr-Aib-Pcf-[Cys-Lys-Arg-ams-Asn-Cys]-Tle-Thr-NH2] ({DOTA}-[X1]T[Aib][Phe(4-Cl)]CKR[d(αMeS)]NC[Tle]T-NH2; disulfide 5-10)	< 200	< 12.6	
C[C@@H](O)[C@H](NC(=O)[C@@H](NC(=O)[C@@H]1CSSC[C@H](NC(=O)[C@H](Cc2ccc(Cl)cc2)NC(=O)C(C)(C)NC(=O)[C@@H](NC(=O)CC2CCN(C(=O)CN3CCN(CC(=O)O)CCN(CC(=O)O)CCN(CC(=O)O)CC3)CC2)[C@@H](C)O)C(=O)N[C@@H](CCCCN)C(=O)N[C@@H](CCCNC(=N)N)C(=O)N[C@@](C)(CC(=O)O)C(=O)N[C@@H](CC(N)=O)C(=O)N1)C(C)(C)C)C(N)=O [PSM-0302, DOTA-Cmp-Thr-Aib-Pcf-[Cys-Lys-Arg-Amd-Asn-Cys]-Tle-Thr-NH2] ({DOTA}-[X1]T[Aib][Phe(4-Cl)]CKR[αMeD]NC[Tle]T-NH2; disulfide 5-10)	< 200	< 12.6	
CC(=O)N[C@H](C(=O)NC(C)(C)C(=O)N[C@@H](Cc1ccc(Cl)cc1)C(=O)N[C@H]1CSSC[C@@H](C(=O)N[C@H](C(=O)N[C@H](C(N)=O)[C@@H](C)O)C(C)(C)C)NC(=O)[C@H](CC(N)=O)NC(=O)C(C)(C)NC(=O)[C@H](CCCNC(N)=O)NC(=O)[C@H](CCCCN)NC1=O)[C@@H](C)O [PSM-0179, Ac-Thr-Aib-Pcf-[Cys-Lys-Cit-Aib-Asn-Cys]-Tle-Thr-NH2] (Ac-T[Aib][Phe(4-Cl)]CK[Cit][Aib]NC[Tle]T-NH2; disulfide 4-9)			IC50 [1, 4]: < 200 nM; Kd [2, 5]: < 12.6 nM
CCCC[C@H](NC(=O)[C@@H]1CSSC[C@H](NC(=O)[C@H](Cc2ccccc2)NC(=O)[C@H](C)NC(=O)[C@@H](NC(C)=O)[C@@H](C)O)C(=O)N[C@@H](CCCCN)C(=O)N[C@@H](CCCNC(=N)N)C(=O)N[C@@H](C)C(=O)N[C@@H](CC(N)=O)C(=O)N1)C(=O)N[C@@H](C)C(=O)N[C@@H](CC(=O)O)C(N)=O [PSM-0476, Ac-Thr-Als-Phe-[Cys-Lys-Arg-Ala-Asn-Cys]-Nle-Als-Asp-NH2] (Ac-TAFCKRANC[Nle]AD-NH2; disulfide 4-9)			IC50 [1, 6]: 200 to 1260 nM; Kd [2, 7]: 126 to 501 nM
CC(=O)N[C@H](C(=O)NC(C)(C)C(=O)N[C@@H](Cc1ccc(Cl)cc1)C(=O)N[C@H]1CSSC[C@@H](C(=O)N[C@H](C(=O)N[C@H](C(N)=O)[C@@H](C)O)C(C)(C)C)NC(=O)[C@H](CO)NC(=O)C(C)(C)NC(=O)[C@H](CCCNC(N)=O)NC(=O)[C@H](CCCCN)NC1=O)[C@@H](C)O [PSM-0293, Ac-Thr-Aib-Pcf-[Cys-Lys-Cit-Aib-Ser-Cys]-Tle-Thr-NH2] (Ac-T[Aib][Phe(4-Cl)]CK[Cit][Aib]SC[Tle]T-NH2; disulfide 4-9)	< 200	< 12.6	
CC(=O)N[C@H](C(=O)NC(C)(C)C(=O)N[C@@H](Cc1ccccc1)C(=O)N[C@H]1CSSC[C@@H](C(=O)N[C@H](C(=O)N[C@H](C(N)=O)[C@@H](C)O)C(C)(C)C)NC(=O)CNC(=O)C(C)(C)NC(=O)[C@H](CCCNC(=N)N)NC(=O)[C@H](CCCCN)NC1=O)[C@@H](C)O [PSM-0479, Ac-Thr-Aib-Phe-[Cys-Lys-Arg-Aib-Gly-Cys]-Tle-Thr-NH2] (Ac-T[Aib]FCKR[Aib]GC[Tle]T-NH2; disulfide 4-9)			IC50 [1, 6]: < 200 nM; Kd [2, 7]: < 12.6 nM
CC(=O)N[C@H](C(=O)NC(C)(C)C(=O)N[C@@H](Cc1ccccc1)C(=O)N[C@H]1CSSC[C@@H](C(=O)N[C@H](C(=O)N[C@H](C(=O)N[C@@H](CC(=O)O)C(N)=O)[C@@H](C)O)C(C)(C)C)NC(=O)[C@H](CC(N)=O)NC(=O)[C@H](C)NC(=O)[C@H](CCCNC(N)=O)NC(=O)[C@H](CCCCN)NC1=O)[C@@H](C)O [PSM-0307, Ac-Thr-Aib-Pho-[Cys-Lys-Cit-Ala-Asn-Cys]-Tle-Thr-Asp-NH2] (Ac-T[Aib]FCK[Cit]ANC[Tle]TD-NH2; disulfide 4-9)	< 200	< 12.6	

Further lines, with some results ahead:

IC50 [1, 3] [nM]	Kd ([2]; PSMA SPR assay, pKD category) [nM]	SMILES	further results
< 200	< 12.6	CC(C)CC(=O)NC(C)(C)C(=O)N[C@@H](Cc1ccc(Cl)cc1)C(=O)N[C@H]1CSSC[C@@H](C(=O)N[C@H](C(=O)N[C@H](C(N)=O)[C@@H](C)O)C(C)(C)C)NC(=O)[C@H](CC(N)=O)NC(=O)[C@H](CCCCNC(=O)CN2CCC(NC(=O)CN3CCN(CC(=O)O)CCN(CC(=O)O)CCN(CC(=O)O)CC3)CC2)NC(=O)[C@H](CCCNC(=N)N)NC(=O)[C@H](CCCCN)NC1=O [PSM-0353, Iva-Aib-Pcf-[Cys-Lys-Arg-Lys(DOTA-APAc)-Asn-Cys]-Tle-Thr-NH2] (Isovaleryl-[Aib][Phe(4-Cl)]CKRK(X7)NC[Tle]T-NH2; disulfide 3-8)	
< 200	< 12.6	C[C@@H](O)[C@H](NC(=O)[C@@H](NC(=O)[C@@H]1CSSC[C@H](NC(=O)[C@H](Cc2ccc(Cl)cc2)NC(=O)C(C)(C)NC(=O)CCNC(=O)CN2CCN(CC(=O)O)CCN(CC(=O)O)CCN(CC(=O)O)CC2)C(=O)N[C@@H](CCCCN)C(=O)N[C@@H](CCCNC(=N)N)C(=O)NC(C)(C)C(=O)N[C@@H](CC(N)=O)C(=O)N1)C(C)(C)C)C(N)=O [PSM-0352, DOTA-Bal-Aib-Pcf-[Cys-Lys-Arg-Aib-Asn-Cys]-Tle-Thr-NH2] ({DOTA-βAla}-[Aib][Phe(4-Cl)]CKR[Aib]NC[Tle]T-NH2; disulfide 3-8)	
200 to 1260	126 to 501	C[C@@H](O)[C@H](NC(=O)[C@@H](NC(=O)[C@@H]1CSSC[C@H](NC(=O)[C@H](Cc2ccc(Cl)cc2)NC(=O)[C@](C)(CC(=O)O)NC(=O)[C@@H](NC(=O)CC2CCN(C(=O)CN3CCN(CC(=O)O)CCN(CC(=O)O)CCN(CC(=O)O)CC3)CC2)[C@@H](C)O)C(=O)N[C@@H](CCCCN)C(=O)N[C@@H](CCCNC(=N)N)C(=O)NC(C)(C)C(=O)N[C@@H](CC(N)=O)C(=O)N1)C(C)(C)C)C(N)=O [PSM-0346, DOTA-Cmp-Thr-Amd-Pcf-[Cys-Lys-Arg-Aib-Asn-Cys]-Tle-Thr-NH2] ({DOTA}-[X1]T[αMeD][Phe(4-Cl)]CKR[Aib]NC[Tle]T-NH2; disulfide 5-10)	
